Laboratory results taken from publication PMC2954223, “Structure of a tryptophanyl-tRNA synthetase containing an iron–sulfur cluster” (Acta Crystallographica Section F: Structural Biology and …, 2010).

Key:
TmTrpRS (TM0492) [1] = biological target: T1, TmTrpRS (TM0492) (Thermotoga maritima, UniProt Q9WYW2); assay: X-ray crystal structure, […] Å; format: binding; details: active site (Rossmann-fold domain); endogenously bound, not added; crystallised at pH 6.5, 277 K
T1 construct: gene trpS; full-length with noncleavable N-terminal tag MGSDKIHHHHHH (kept in crystal), expressed in E. coli DL41; native TTG start codon lies in forward primer after the tag; model residues 0-328, 113-119 disordered; homodimer
T1 sequence (Q9WYW2 1-328): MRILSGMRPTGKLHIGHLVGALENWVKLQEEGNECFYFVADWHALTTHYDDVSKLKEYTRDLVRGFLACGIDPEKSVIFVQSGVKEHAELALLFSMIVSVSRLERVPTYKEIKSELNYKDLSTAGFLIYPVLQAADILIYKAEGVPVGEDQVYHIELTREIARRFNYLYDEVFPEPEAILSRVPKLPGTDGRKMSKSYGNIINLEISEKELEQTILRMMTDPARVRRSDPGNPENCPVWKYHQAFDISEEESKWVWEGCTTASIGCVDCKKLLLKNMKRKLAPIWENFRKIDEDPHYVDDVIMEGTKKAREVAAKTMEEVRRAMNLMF

TmTrpRS (TM0492) [2] = biological target: T1, TmTrpRS (TM0492); assay: X-ray crystal structure, […] Å; X-ray fluorescence scan; mass spectrometry; format: binding; details: TAB domain; chelated by Cys236, Cys259, Cys266, Cys269; co-purified; crystallised at pH 6.5, 277 K

SMILES	X-ray crystal structure, 2.50 Å (TmTrpRS (TM0492) [1])	X-ray crystal structure, 2.50 Å; X-ray fluorescence scan; mass spectrometry (TmTrpRS (TM0492) [2])
N[C@@H](Cc1c[nH]c2ccccc12)C(=O)O [L-tryptophan]	the structure revealed a bound L-tryptophan molecule in the Trp-binding pocket of the active site	
[S]12[Fe]3[S]4[Fe]1[S]1[Fe]2[S]3[Fe]41 [[4Fe–4S] cluster]		The [4Fe–4S] cluster is chelated by the side chains of Cys236, Cys259, Cys266 and Cys269
